Measured values from patent US20220363673A1, “5-(Thiophen-2-YL)-1 H-Tetrazole Derivative as BCKDK Inhibitors Useful for Treating Various Diseases” (Pfizer Inc., priority 2019, published 2022).
Where a name gives a salt, the structure may show the parent alone.

Target: T1, human BCKDK (Homo sapiens, UniProt O14874)
T1 construct: human BCKDK (residues 31-412 of the protein pre-processing); 6xHis (N, cleaved yes); MBP (N, cleaved yes); TEV protease site (ENLYFQG) (N, cleaved yes); made in house; host or cells: BL21(DE3) E. coli, co-expressed with GroEL-GroES
Assay: In Vitro FRET (TR-FRET) BCKDK activity assay, phosphorylation of BCKDHE1α-E2 fusion substrate
Assay type: biochemical
Settings: geometric mean, two significant figures; 15 μM ATP
Description: BCKDK protein was generated using a pET vector containing from N- to C-terminus: 6×His, MBP, a TEV protease site (ENLYFQG), a biotin acceptor peptide ([…]), and human BCKDK (residues 31-412 of the protein pre-processing). Protein was co-expressed with GroEL-GroES in BL21(DE3) E. coli in LB media, and protein production was induced with 0.5 mM IPTG and 0.5 mg/mL L-arabinose at an OD600 of 1 and grown for 16 h at 26° C. Bacteria were lysed using a Microfluidizer in 100 mM potassium phosphate pH 7.5, 500 mM NaCl, 0.1 mM EDTA, 1% Tween-20, 0.25% Triton X-100, 10% glycerol, 1 mM DTT, and protease inhibitors. MBP-tagged protein was purified by affinity chromatography using amylose resin, and MBP was removed from BCKDK by TEV protease incubation followed by gel filtration chromatography in 50 mM HEPES pH 7.5, 500 mM NaCl, 300 mM L-Arginine, 2 mM MgCl2, 1 mM DTT, and 10% glycerol.
A pET vector containing E. coli LplA was expressed in BL21(DE3) E. coli in LB media, and protein production was induced with 0.75 mM IPTG at an OD600 of 1 and grown for 16 h at 30° C. Bacteria were lysed using a Microfluidizer in 50 mM sodium phosphate buffer pH 7.5, 350 mM NaCl, 1.5 mM MgCl2, and 1 mM DTT. LplA protein was precipitated from clarified lysate with 1 M ammonium sulfate and further purified by gel filtration chromatography in 50 mM sodium phosphate pH 7.5, 350 mM NaCl, 1.5 mM MgCl2, 1 mM DTT, and 10% glycerol.
The BCKDHE1α-E2 fusion substrate was cloned into a pET vector and contained from N- to C-terminus: the lipoyl binding domain of E2 (residues 62-160 pre-processing), a TEV protease site (LENLYFQG), residues 331-345 (pre-processing) from E1α, and 6×His (Tso, S. C. et al., J Biol Chem 2014, 289 (30), 20583-20593). The fusion substrate was expressed in BL21(DE3) E. coli in LB media, and protein production was induced with 0.75 mM IPTG at an OD600 of 1 and grown for 16 h at 30° C. Bacteria were lysed using a Microfluidizer in 50 mM sodium phosphate pH 7.5, 350 mM NaCl, 10 mM imidazole, 10% glycerol, 1 mM DTT, and protease inhibitors. […] For lipoylation, fusion substrate was incubated with LplA at a 10:1 (substrate:LplA) ratio in 20 mM sodium phosphate pH 7.4, 6 mM MgCl2, 4 mM ATP, 2 mM DTT, 3 mM DL-6,8-thioctic acid at 37° C. The reaction was monitored using an Agilent 6530 Q-TOF coupled to an Agilent 1290 UPLC. The final lipoylated fusion substrate was purified by gel filtration chromatography in 50 mM HEPES pH 7.5, 350 mM NaCl, 1.5 mM MgCl2, 1 mM DTT, 10% glycerol.
BCKDK activity was monitored by phosphorylation of a HIS-tagged fusion BCKDHE1α-E2 substrate protein as described above and was detected using a time resolved-fluorescence resonance energy transfer (TR-FRET) assay system. Compounds were spotted into a 384 well plate, and purified human BCKDK protein was added to the plated compound. After incubation, the LBD-linker-E1 phosphorylation sequence was added in the presence of 15 μM ATP. The reaction was terminated with EDTA. Phosphorylated substrate was recognized by the addition of rabbit anti-E1 phospho Ser293 antibodies (Bethyl Laboratories—A304-672A), and the TR-FRET signal was developed by addition of anti-HIS donor molecules (Europium; Perkin Elmer—AD0205, AD0110, AD0111) and anti-Rabbit acceptor molecules (Ulight; Perkin Elmer—TRF502D, TRF502M, TRF502R). Recognition of phosphorylated E1 brought donor and acceptor molecules into close proximity, and excitation at 320 nm caused energy transfer from the Europium donor to the Ulight acceptor dye, which in turn generated light at 665 nm. Signal intensity was proportional to the level of BCKDK-mediated substrate phosphorylation. Reactions were normalized to zero percent effect with DMSO and one hundred percent effect with 600 μM Radicicol, a known BCKDK inhibitor. IC50 curves were generated using ABASE software (IDBS, Boston Mass.).

| IC50 [µM] | Compound |
| --- | --- |
| 3.6 | Cc1cc(F)sc1-c1nnn[nH]1 [Example 2, 5-(5-Fluoro-3-methylthiophen-2-yl)-1H-tetrazole] |
| 1.1 | CCc1c(Cl)csc1-c1nnn[nH]1 [Example 3, 5-(4-Chloro-3-ethylthiophen-2-yl)-1H-tetrazole, ammonium salt] |
| 2.5 | FC(F)c1ccsc1-c1nnn[nH]1 [Example 5, 5-[3-(Difluoromethyl)thiophen-2-yl]-1H-tetrazole] |
| 1.1 | FC(F)c1cc(Cl)sc1-c1nnn[nH]1 [Example 6, 5-[5-Chloro-3-(difluoromethyl)thiophen-2-yl]-1H-tetrazole] |
| 1.9 | Cc1c(-c2nnn[nH]2)sc(Cl)c1Cl [Example 11, 5-(4,5-Dichloro-3-methylthiophen-2-yl)-1H-tetrazole] |
| 2.6 | Cc1cc(Cl)c(-c2nnn[nH]2)s1 [Example 14, 5-(3-chloro-5-methylthiophen-2-yl)-1H-tetrazole] |
| 13 | Oc1cc(Br)sc1-c1nnn[nH]1 [Example 15, 5-bromo-2-(1H-tetrazol-5-yl)thiophene-3-ol] |
| 4.5 | COc1cc(Br)sc1-c1nnn[nH]1 [Example 16, 5-(5-bromo-3-methoxythiophen-2-yl)-1H-tetrazole] |
| 4.1 | Clc1cc(Br)c(-c2nnn[nH]2)s1 [Example 19, 5-(3-bromo-5-chlorothiophen-2-yl)-1H-tetrazole] |
| 3.6 | Cc1cc(C(F)F)sc1-c1nnn[nH]1 [Example 21, 5-[5-(difluoromethyl)-3-methylthiophen-2-yl]-1H-tetrazole] |
| 11 | FC(F)(F)c1ccsc1-c1nnn[nH]1 [Example 22, 5-[3-(trifluoromethyl)thiophen-2-yl]-1H-tetrazole] |
| 7.2 | FC(F)(F)c1cc(Cl)sc1-c1nnn[nH]1 [Example 23, 5-[5-chloro-3-(trifluoromethyl)thiophen-2-yl]-1H-tetrazole] |
| > 300 | c1cc(C2CC2)c(-c2nnn[nH]2)s1 [Example 26, 5-(3-cyclopropylthiophen-2-yl)-1H-tetrazole] |
| 10 | Clc1cc(C2CC2)c(-c2nnn[nH]2)s1 [Example 29, 5-(5-chloro-3-cyclopropylthiophen-2-yl)-1H-tetrazole] |
| 2.9 | Fc1cc(Cl)sc1-c1nnn[nH]1 [Example 30, 5-(5-chloro-3-fluorothiophen-2-yl)-1H-tetrazole] |
| 3.6 | Fc1cc(Cl)c(-c2nnn[nH]2)s1 [Example 31, 5-(3-chloro-5-fluorothiophen-2-yl)-1H-tetrazole] |
| 1.4 | Brc1ccsc1-c1nnn[nH]1 [Example 35, 5-(3-bromothiophen-2-yl)-1H-tetrazole] |

Second part, the molecule before the results:

| Compound | IC50 [µM] |
| --- | --- |
| CCc1c(Br)csc1-c1nnn[nH]1 [Example 4, 5-(4-Bromo-3-ethylthiophen-2-yl)-1H-tetrazole, ammonium salt] | 1.1 |
| Clc1ccsc1-c1nnn[nH]1 [Example 7, 5-(3-chlorothiophen-2-yl)-1H-tetrazole] | 11 |
| Clc1cc(Br)sc1-c1nnn[nH]1 [Example 8, 5-(5-Bromo-3-chlorothiophen-2-yl)-1H-tetrazole] | 3.4 |
| Cc1c(-c2nnn[nH]2)sc(Cl)c1F [Example 10, 5-(5-Chloro-4-fluoro-3-methylthiophen-2-yl)-1H-tetrazole] | 0.81 |
| Clc1cc(Cl)c(-c2nnn[nH]2)s1 [Example 12, 5-(3,5-Dichlorothiophen-2-yl)-1H-tetrazole, ammonium salt] | 2 |
| CCc1cc(Br)c(-c2nnn[nH]2)s1 [Example 13, 5-(3-Bromo-5-ethylthiophen-2-yl)-1H-tetrazole] | > 83 |
| Brc1csc(-c2nnn[nH]2)c1Br [Example 17, 5-(3,4-dibromothiophen-2-yl)-1H-tetrazole] | 6.1 |
| Cc1c(-c2nnn[nH]2)sc(Br)c1Br [Example 18, 5-(4,5-dibromo-3-methylthiophen-2-yl)-1H-tetrazole] | 4.5 |
| Cc1cc(C(F)(F)F)sc1-c1nnn[nH]1 [Example 20, 5-[3-methyl-5-(trifluoromethyl)thiophen-2-yl]-1H-tetrazole] | 3.7 |
| COc1ccsc1-c1nnn[nH]1 [Example 24, 5-(3-methoxythiophen-2-yl)-1H-tetrazole] | > 300 |
| CCc1ccsc1-c1nnn[nH]1 [Example 25, 5-(3-ethylthiophen-2-yl)-1H-tetrazole] | 9.8 |
| CCc1cc(Cl)sc1-c1nnn[nH]1 [Example 27, 5-(5-chloro-3-ethylthiophen-2-yl)-1H-tetrazole] | 4 |
| Fc1ccsc1-c1nnn[nH]1 [Example 28, 5-(3-fluorothiophen-2-yl)-1H-tetrazole] | 16 |
| CCc1cc(C)c(-c2nnn[nH]2)s1 [Example 32, 5-(5-ethyl-3-methylthiophen-2-yl)-1H-tetrazole] | 15 |
| Cc1cc(Br)sc1-c1nnn[nH]1 [Example 33, 5-(5-bromo-3-methylthiophen-2-yl)-1H-tetrazole] | 3.1 |
| Fc1cc(Br)c(-c2nnn[nH]2)s1 [Example 34, 5-(3-bromo-5-fluorothiophen-2-yl)-1H-tetrazole] | 2.7 |
| Cc1ccsc1-c1nnn[nH]1 [Example 36, 5-(3-methylthiophen-2-yl)-1H-tetrazole] | 6 |
| Oc1ccsc1-c1nnn[nH]1 [Example 37, 2-(1H-tetrazol-5-yl)thiophene-3-ol] | 13 |
